Data published in US6310093A (priority 1998, dated 2001).
Residue numbers refer to the chain shown, from its start. Values joined by “and” are separate entries in the source; they are usually repeats but may differ in a detail not shown here. Identical values can stand only once.

What was measured:
isolated neurons = conditions: Rosenberg; Dugan et al., 1995; read-out: IC50 for toxicity of glutamate on isolated neurons; cited from earlier work
[1] = tested on: mixed glial-neuronal cultures; test: Glutamate uptake (clearance) by mixed glial-neuronal cultures; assay type: cell-based, mouse (Swiss Webster)
Procedure: (§1) This allows expression of medium glutamate concentrations as:
(§2) where [Glu], in units of μM, is the concentration of glutamate in the 0.4 ml of medium in a culture well, S (in μM/min) is the rate of addition of glutamate to the culture medium from cellular sources, and k (in min^-1) is the empirically determined rate constant for clearance (Roberts). […] Although the value of k is proportional to cell (carrier) density, little variation is expected in cultures containing glia, as glial cultures are confluent.
(§3) where [Glu], in units of μM, is the concentration of glutamate in the 0.4 ml of medium in a culture well, S (in μM/min) is the rate of addition of glutamate to the culture medium from cellular sources, and k (in min^-1) is the empirically determined rate constant for clearance (Roberts, D. V. (1977) Enzyme Kinetics, Cambridge University Press, Cambridge, pp23-30.). […] Although the value of k is proportional to cell (carrier) density, little variation is expected in cultures containing glia as glial cultures are confluent.

[2] = tested on: glial cultures (astrocytes); assay type: cell-based, mouse (Swiss Webster)
[3] = target: T1, glutaminase (brain membranes) (Rattus norvegicus, UniProt P13264); test: biochemical
T1 construct: Membranes are prepared by homogenization of brain tissue in 330 mM sucrose; from tissue; host or cells: rat brain, crude membranes (17000 G pellet)
T1 sequence (P13264 73-674 limits assumed): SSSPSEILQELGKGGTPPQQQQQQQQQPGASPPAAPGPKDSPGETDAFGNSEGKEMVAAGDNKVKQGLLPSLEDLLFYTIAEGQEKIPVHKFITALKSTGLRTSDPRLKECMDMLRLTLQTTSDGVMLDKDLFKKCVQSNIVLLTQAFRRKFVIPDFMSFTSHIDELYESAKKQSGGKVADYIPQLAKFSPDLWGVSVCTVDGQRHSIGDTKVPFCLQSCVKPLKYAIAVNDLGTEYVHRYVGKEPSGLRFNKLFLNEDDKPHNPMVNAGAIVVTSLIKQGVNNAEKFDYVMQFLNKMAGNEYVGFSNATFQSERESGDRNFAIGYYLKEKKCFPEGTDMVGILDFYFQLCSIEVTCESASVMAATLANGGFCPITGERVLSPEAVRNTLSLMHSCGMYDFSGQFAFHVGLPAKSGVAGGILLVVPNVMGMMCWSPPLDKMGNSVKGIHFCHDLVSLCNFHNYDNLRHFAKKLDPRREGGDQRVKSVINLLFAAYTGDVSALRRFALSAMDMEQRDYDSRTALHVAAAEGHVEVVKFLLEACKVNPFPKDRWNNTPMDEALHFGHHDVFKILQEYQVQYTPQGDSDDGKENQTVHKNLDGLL

neuronal cultures = test: Glutamate uptake (clearance) by neuronal cultures; assay type: cell-based, mouse (Swiss Webster); conditions: intact neurons
Procedure: as §1, §2, §3

[4] = tested on: glial cultures (astrocytes); conditions: Hertz; Drejer; read-out: Km for cellular uptake of glutamate; cited from earlier work
[5] = tested on: neuronal cells in culture; test: cells; conditions: Mus musculus, read-out: LDH release by NMDA exposure relative to freeze-thaw
[6] = tested on: mixed neuronal-astrocyte cultures; test: cells; conditions: Mus musculus, 24 h, read-out: % cell death (LDH)
[7] = tested on: mixed neuronal-astrocyte cultures
[8] = target: T2, glutaminase in live (intact) neurons (Mus musculus, UniProt D3Z7P3); assay type: cell-based, mouse (Swiss Webster)
T2 sequence (D3Z7P3 55-674): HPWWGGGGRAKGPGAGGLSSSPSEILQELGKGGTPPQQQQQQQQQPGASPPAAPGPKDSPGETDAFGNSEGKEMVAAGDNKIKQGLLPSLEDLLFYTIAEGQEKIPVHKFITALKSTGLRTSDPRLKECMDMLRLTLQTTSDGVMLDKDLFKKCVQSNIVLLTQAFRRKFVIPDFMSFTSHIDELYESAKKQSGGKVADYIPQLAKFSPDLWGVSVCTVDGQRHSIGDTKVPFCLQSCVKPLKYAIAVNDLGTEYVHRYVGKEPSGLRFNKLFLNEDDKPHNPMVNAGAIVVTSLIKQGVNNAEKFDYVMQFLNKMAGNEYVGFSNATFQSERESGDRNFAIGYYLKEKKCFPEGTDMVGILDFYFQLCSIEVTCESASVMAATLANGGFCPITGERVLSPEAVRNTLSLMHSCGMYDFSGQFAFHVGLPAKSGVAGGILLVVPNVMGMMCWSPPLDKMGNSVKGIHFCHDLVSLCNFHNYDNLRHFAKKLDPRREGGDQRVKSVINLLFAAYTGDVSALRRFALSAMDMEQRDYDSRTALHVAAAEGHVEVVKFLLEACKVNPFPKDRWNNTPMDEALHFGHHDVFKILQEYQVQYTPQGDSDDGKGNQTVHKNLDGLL

[9] = Huber; cited from earlier work
[10] = tested on: hippocampal slices (field potential)
[11] = Kaneko et al. 1992; cited from earlier work
[12] = target: T3, glutaminase in damaged neurons (Mus musculus, UniProt D3Z7P3)
T3 sequence (D3Z7P3 73-674 limits assumed): T1 sequence (P13264 73-674 limits assumed) with V64I, E590G

[13] = tested on: neuronal cells in culture

Compound: N[C@@H](CCC(=O)O)C(=O)O [L-glutamic acid]
- IC50 (isolated neurons): 5 to 10 µM
- first order rate constant for glutamate uptake ([1]; 15 μM glutamate): 0.072 min⁻¹
- Glutamate uptake (k) ([1]; Table 2, glial-neuronal): 0.072
- Glutamate uptake (k) [2]: 0.083
- first order rate constant for glutamate uptake [2]: 0.083 min⁻¹
- glutamate uptake rate of glial vs neuronal cultures [2]: about 7 times
- glutaminase inhibition (in words) [3]: no significant effect on enzyme activity at 3.3 mM
- activity at 1000 µM ([3]; read-out: Glutaminase Activity): 105 ± 15%
- activity at 3300 µM ([3]; read-out: Glutaminase Activity): 113 ± 32%
- Glutamate uptake (k) (neuronal cultures): 0.012 min⁻¹
- Km [4]: ~45 µM

Compound: CN[C@H](CC(=O)O)C(=O)O [NMDA, N-methyl-D-aspartate]
- cytotoxicity at 500 µM [5]: ~85%
- cytotoxicity at 500 µM [6]: 100%
- Glu [7]: 7.0 ± 0.6

Compound: [N-]=[N+]=CC(=O)CC[C@H](N)C(=O)O [DON, 6-diazo-5-oxo-L-norleucine]
- effect on glutaminase activity of intact/live neurons (in words) [8]: inhibition of glutaminase
- glutamate production after neuronal death [8]: 0.23 ± 0.03 μM Glu/min and 0.15 ± 0.02 μM Glu/min
- crossing of cell membranes (in words) [9]: readily cross cell membranes
- effect on hippocampal field potential (in words) [10]: decreased the magnitude and prolonged the duration of the field potential
- toxicity and tissue penetration after CNS administration (in words) [11]: toxicity and poor tissue penetration
- inhibition of glutamate production [12]: 90% and 50%
- inhibition of glutaminase activity in damaged cells (in words) [12]: inhibit glutaminase activity in damaged cells
- LDH release from neuronal cells (in words) [13]: resulted in release of lactate dehydrogenase from the cells, indicating cellular toxicity and death
